{"source": "patent US20240033234A1", "about": "“THERAPEUTIC COMPOUNDS, FORMULATIONS, AND USE THEREOF” (Tvardi Therapeutics, Inc., priority 2022, published 2024)", "test": "3-Month stability data for TTI-101 Batches B, C, D and E stored at 40° C./75% RH", "type": "physicochemical", "method": "Exemplary HPLC conditions: diluent was 0.1% trifluoroacetic acid (TFA) in acetonitrile, Mobile Phase A was 0.05% TFA in water, and Mobile Phase B was 0.05% TFA in acetonitrile, column (Agilent, Eclipse XDB-C18, 3.0×100 mm, particle size 1.8 μm), flow (0.425 mL/min), and detector (280 nm diode array).\nBatches B, C, and D were prepared according to Method 5, Method 4, and Method 3, respectively, as described in Example 1. Batch E was prepared analogously using according to Method 1 as described in Example 1.\nSamples of TTI-101 (Batches B, C, D, and E) were stored at 40° C./75% RH for 3 months. The batches were individually stored in an low density polyethylene (LDPE) bag enclosed with a Nylon cable tie and then transferred to another LDPE bag and enclosed with a Nylon cable tie. The enclosure was put into a high density polyethylene (HDPE) bottle and closed with a polyethylene-lined polypropylene cap. For Batch B only, another sample was enclosed in a screw-top amber glass bottle and closed with a cap. The samples were stored under the above-identified conditions.", "data": [{"compound": "COc1ccc(S(=O)(=O)Nc2cc(-c3c(O)ccc4ccccc34)c(O)c3ccccc23)cc1", "note": "[TTI-101]", "values": [{"measurement": "Impurity RRT 0.84, Area %", "setting": "0 M", "result": "NQ (≥0.02% and <0.05%)"}, {"measurement": "Impurity RRT 0.87, Area %", "setting": "0 M", "result": "NQ (≥0.02% and <0.05%)"}, {"measurement": "Impurity RRT 1.06 (Cmp 4), Area %", "setting": "0 M", "result": "NQ (≥0.02% and <0.05%)"}, {"measurement": "Impurities Total, Area %", "setting": "0 M, listed as Batch C", "result": 0.4, "unit": "Area %"}, {"measurement": "Impurity RRT 0.99, Area %", "setting": "0 M, listed as Batch C", "result": 0.06, "unit": "Area %"}, {"measurement": "Impurity RRT 1.16 (Cmp 6), Area %", "setting": "0 M, listed as Batch C", "result": 0.31, "unit": "Area %"}, {"measurement": "Impurities Total, Area %", "setting": "0 M, listed as Batch D", "result": 0.1, "unit": "Area %"}, {"measurement": "Impurity RRT 1.16 (Cmp 6), Area %", "setting": "0 M, listed as Batch D", "result": 0.10, "unit": "Area %"}, {"measurement": "Impurities Total, Area %", "setting": "0 M, listed as Batch E", "result": 0.1, "unit": "Area %"}, {"measurement": "Impurity RRT 1.16 (Cmp 6), Area %", "setting": "0 M, listed as Batch E", "result": 0.10, "unit": "Area %"}, {"measurement": "Impurities Total, Area %", "setting": "1 M, listed as Batch C", "result": 0.1, "unit": "Area %"}, {"measurement": "Impurity RRT 0.99, Area %", "setting": "1 M, listed as Batch C", "result": "NQ (≥0.02% and <0.05%)"}, {"measurement": "Impurity RRT 1.17 (Cmp 6), Area %", "setting": "1 M, listed as Batch C", "result": 0.12, "unit": "Area %"}, {"measurement": "Impurities Total, Area %", "setting": "1 M, listed as Batch D", "result": 0.1, "unit": "Area %"}, {"measurement": "Impurity RRT 1.17 (Cmp 6), Area %", "setting": "1 M, listed as Batch D", "result": 0.09, "unit": "Area %"}, {"measurement": "Impurities Total, Area %", "setting": "1 M, listed as Batch E", "result": 0.1, "unit": "Area %"}, {"measurement": "Impurity RRT 0.99, Area %", "setting": "1 M, listed as Batch E", "result": "NQ (≥0.02% and <0.05%)"}, {"measurement": "Impurity RRT 1.17 (Cmp 6), Area %", "setting": "1 M, listed as Batch E", "result": 0.09, "unit": "Area %"}, {"measurement": "Impurity RRT 0.99, Area %", "setting": "2 M", "result": "NQ (≥0.02% and <0.05%)"}, {"measurement": "Impurity RRT 1.06 (Cmp 4), Area %", "setting": "2 M", "result": "NQ (≥0.02% and <0.05%)"}, {"measurement": "Impurities Total, Area %", "setting": "2 M, listed as Batch C", "result": 0.1, "unit": "Area %"}, {"measurement": "Impurity RRT 1.17 (Cmp 6), Area %", "setting": "2 M, listed as Batch C", "result": 0.13, "unit": "Area %"}, {"measurement": "Impurities Total, Area %", "setting": "2 M, listed as Batch D", "result": 0.1, "unit": "Area %"}, {"measurement": "Impurity RRT 1.17 (Cmp 6), Area %", "setting": "2 M, listed as Batch D", "result": 0.09, "unit": "Area %"}, {"measurement": "Impurities Total, Area %", "setting": "2 M, listed as Batch E", "result": 0.1, "unit": "Area %"}, {"measurement": "Impurity RRT 1.17 (Cmp 6), Area %", "setting": "2 M, listed as Batch E", "result": 0.09, "unit": "Area %"}, {"measurement": "Impurity RRT 0.95, Area %", "setting": "3 M", "result": "NQ (≥0.02% and <0.05%)"}, {"measurement": "Impurity RRT 0.98, Area %", "setting": "3 M", "result": "NQ (≥0.02% and <0.05%)"}, {"measurement": "Impurity RRT 1.06 (Cmp 4), Area %", "setting": "3 M", "result": "NQ (≥0.02% and <0.05%)"}, {"measurement": "Impurities Total, Area %", "setting": "3 M, listed as Batch C", "result": 0.3, "unit": "Area %"}, {"measurement": "Impurity RRT 1.16 (Cmp 6), Area %", "setting": "3 M, listed as Batch C", "result": 0.31, "unit": "Area %"}, {"measurement": "Impurities Total, Area %", "setting": "3 M, listed as Batch D", "result": 0.1, "unit": "Area %"}, {"measurement": "Impurity RRT 1.16 (Cmp 6), Area %", "setting": "3 M, listed as Batch D", "result": 0.11, "unit": "Area %"}, {"measurement": "Impurities Total, Area %", "setting": "3 M, listed as Batch E", "result": 0.2, "unit": "Area %"}, {"measurement": "Impurity RRT 1.16 (Cmp 6), Area %", "setting": "3 M, listed as Batch E", "result": 0.16, "unit": "Area %"}, {"measurement": "Purity (%)", "setting": "T = 0 month (0 M), listed as Batch C", "result": 99.6, "unit": "%"}, {"measurement": "Purity (%)", "setting": "T = 0 month (0 M), listed as Batch D", "result": 99.9, "unit": "%"}, {"measurement": "Purity (%)", "setting": "T = 0 month (0 M), listed as Batch E", "result": 99.9, "unit": "%"}, {"measurement": "Purity (%)", "setting": "T = 1 month (1 M), listed as Batch C", "result": 99.8, "unit": "%"}, {"measurement": "Purity (%)", "setting": "T = 1 month (1 M), listed as Batch D", "result": 99.9, "unit": "%"}, {"measurement": "Purity (%)", "setting": "T = 1 month (1 M), listed as Batch E", "result": 99.9, "unit": "%"}, {"measurement": "Purity (%)", "setting": "T = 2 months (2 M), listed as Batch C", "result": 99.8, "unit": "%"}, {"measurement": "Purity (%)", "setting": "T = 2 months (2 M), listed as Batch D", "result": 99.9, "unit": "%"}, {"measurement": "Purity (%)", "setting": "T = 2 months (2 M), listed as Batch E", "result": 99.9, "unit": "%"}, {"measurement": "Purity (%)", "setting": "T = 3 months (3 M), listed as Batch C", "result": 99.6, "unit": "%"}, {"measurement": "Purity (%)", "setting": "T = 3 months (3 M), listed as Batch D", "result": 99.9, "unit": "%"}, {"measurement": "Purity (%)", "setting": "T = 3 months (3 M), listed as Batch E", "result": 99.8, "unit": "%"}]}]}
